# Measured values reported in patent publication US11905279B1, “Benzylidene derivatives of fenobam as anti-inflammatory agents” (KING FAISAL UNIVERSITY, priority 2023, dated 2024).
# What was measured:
# human COX-1 = molecular target: T1, human COX-1 (Homo sapiens, UniProt P23219); assay: Cyclooxygenase (COX-1) enzyme inhibition assay, COX (human) Inhibitor Screening Assay Kit; assay type: biochemical; settings: compound at 10 μM; in vitro, human COX-1 isoenzyme; ELISA incubation 18 hours; read-out: % Inhibition( COX1) Mean ± SEM
# T1 construct: purchased
# Procedure: (§1) According to manufacturer instructions, a COX inhibition assay was performed using COX (human) Inhibitor Screening Assay Kit for the compounds 5c, 5d, 5h, 5k, 5l, 5m, and 6d. All reagents and buffers were prepared in ultrapure water. All stock solutions of the compounds and the positive controls (Indomethacin and Celecoxib) were dissolved in DMSO. In each inhibitor sample tube, 160 μL reaction buffer, 10 μL of heme, 10 μL of diluted COX-1 or COX-2 enzyme, and 10 μL of the diluted inhibitor was added to get a final concentration of 100 μM. […] 10 μL of the vehicle control (DMSO) was added to the background tubes, and COX enzyme's 100% initial activity was obtained. All reaction tubes were incubated for 10 minutes at 37° C. Following this incubation, 10 μL of the substrate, arachidonic acid (AA), was added to all test tubes, mixed, and further incubated for precisely 30 seconds at 37° C. Then, 30 μL of SnCl2 solution was added to each reaction tube to stop the enzyme catalysis. All reaction tubes were removed from the incubator, vortexed, and incubated again for 5 min at room temperature. Reaction tubes were stored at 4° C. to quantify the prostaglandin formation by competitive enzyme-linked immunosorbent assay (ELISA). ELISA standards were prepared in test tubes to perform the competitive ELISA, and dilutions were prepared with the ELISA buffer. The standards, COX reaction dilutions, and background samples were serially diluted. After that, 50 μL of the diluted standards, COX background, COX 100% initial activity, and COX inhibitor samples were transferred to the corresponding wells of 96 well ELISA plate. Blank (to assess the background absorbance caused by Ellman's reagent) and total activity (TA) (to determine the enzymatic activity of the AChE-linked tracer) wells were left empty, 100 μL and 50 μL of the ELISA buffer were added to the nonspecific binding (NSB) and maximum binding (BO), respectively. Prostaglandin screening AChE tracer (50 μL) and prostaglandin screening ELISA antiserum (50 μL) were added to corresponding wells except for TA. The plate was covered with a plastic film, wrapped with foil to protect from light, and incubated for 18 hours at room temperature. Following incubation, the plate was washed and developed with 200 μL of Ellman's reagent to all wells, and 5 μL of tracer was added to TA well. The plate was covered with foil, placed on an orbital shaker, and incubated for 60-90 minutes. Finally, the plate reading was done at a wavelength of 405 nm with a Microplate reader from BioTek (by Agilent), and data were collected using Gen5™ (by Agilent) analysis software.
# (§2) In vitro catalytic inhibition data of compounds 5c, 5d, 5h, 5k, 5l, 5m, and 6d at 10 μM against human COX-1 and COX-2 isoenzymes is listed in Table 1.
# human COX-2 = molecular target: T2, human COX-2 (Homo sapiens, UniProt P35354); assay: Cyclooxygenase (COX-2) enzyme inhibition assay, COX (human) Inhibitor Screening Assay Kit; assay type: biochemical; settings: compound at 10 μM; in vitro, human COX-2 isoenzyme; ELISA incubation 18 hours; read-out: % Inhibition( COX2) Mean ± SEM
# T2 construct: purchased
# T2 sequence (P35354 18-604): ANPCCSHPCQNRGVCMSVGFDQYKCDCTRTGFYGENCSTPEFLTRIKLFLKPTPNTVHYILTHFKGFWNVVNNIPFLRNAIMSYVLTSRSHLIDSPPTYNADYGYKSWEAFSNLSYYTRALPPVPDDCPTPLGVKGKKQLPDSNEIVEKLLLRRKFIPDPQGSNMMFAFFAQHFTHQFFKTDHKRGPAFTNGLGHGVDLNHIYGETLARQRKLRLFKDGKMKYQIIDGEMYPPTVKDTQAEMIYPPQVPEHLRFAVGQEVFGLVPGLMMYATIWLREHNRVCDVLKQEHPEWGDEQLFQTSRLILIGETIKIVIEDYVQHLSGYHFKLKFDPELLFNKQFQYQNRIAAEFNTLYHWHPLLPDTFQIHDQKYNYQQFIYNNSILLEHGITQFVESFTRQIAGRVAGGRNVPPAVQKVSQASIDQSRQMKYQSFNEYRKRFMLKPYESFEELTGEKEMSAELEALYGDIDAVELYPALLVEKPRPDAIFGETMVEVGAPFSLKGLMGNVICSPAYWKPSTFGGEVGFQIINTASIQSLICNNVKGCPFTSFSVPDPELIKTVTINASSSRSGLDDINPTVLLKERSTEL
# Procedure: as §1, §2
# T1 sequence (P23219 24-599): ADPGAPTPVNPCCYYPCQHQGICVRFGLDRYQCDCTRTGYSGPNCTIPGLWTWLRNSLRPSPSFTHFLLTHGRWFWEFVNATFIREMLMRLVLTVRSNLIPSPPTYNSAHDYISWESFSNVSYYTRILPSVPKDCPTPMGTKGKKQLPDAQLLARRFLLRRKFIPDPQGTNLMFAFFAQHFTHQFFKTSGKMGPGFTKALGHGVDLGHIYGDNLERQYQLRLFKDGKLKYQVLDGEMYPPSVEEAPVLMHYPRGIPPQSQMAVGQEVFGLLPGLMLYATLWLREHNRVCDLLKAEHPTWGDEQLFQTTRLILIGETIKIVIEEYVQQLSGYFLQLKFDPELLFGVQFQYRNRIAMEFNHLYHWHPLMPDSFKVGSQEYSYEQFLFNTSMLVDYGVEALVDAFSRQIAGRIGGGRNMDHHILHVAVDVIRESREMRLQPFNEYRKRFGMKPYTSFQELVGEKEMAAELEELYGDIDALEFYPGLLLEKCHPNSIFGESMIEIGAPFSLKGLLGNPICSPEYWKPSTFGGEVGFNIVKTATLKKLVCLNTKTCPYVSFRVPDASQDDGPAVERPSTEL
SMILES,inhibition at 10 µM (human COX-1) [%],inhibition at 10 µM (human COX-2) [%]
"CN1/C(=C\c2ccc(Br)o2)C(=O)N/C1=N\C(=O)Nc1ccccc1F [Compound 5c, 1-{(2E,5Z)-5-[(5-Bromofuran-2-yl)methylidene]-1-methyl-4-oxoimidazolidin-2-ylidene}-3-(2-fluorophenyl)urea]",17 ± 6.5,78 ± 15.5
"CN1/C(=C\c2ccc(-c3ccccc3[N+](=O)[O-])o2)C(=O)N/C1=N\C(=O)Nc1ccccc1F [Compound 5d, 1-(2-Fluorophenyl)-3-[(2E,5Z)-1-methyl-5-{[5-(2-nitrophenyl)furan-2-yl]methylidene}-4-oxoimidazolidin-2-ylidene]urea]",57 ± 0.15,97 ± 0.5
"CN1/C(=C\c2ccc(-c3ccccc3[N+](=O)[O-])o2)C(=O)N/C1=N\C(=O)Nc1cccc(F)c1 [Compound 5h, 1-(3-Fluorophenyl)-3-[(2E,5Z)-1-methyl-5-{[5-(2-nitrophenyl)furan-2-yl]methylidene}-4-oxoimidazolidin-2-ylidene]urea]",51 ± 7,39 ± 2
"CN1/C(=C\c2ccc(Br)o2)C(=O)N/C1=N\C(=O)Nc1ccc(F)cc1 [Compound 5k, 1-{(2E,5Z)-5-[(5-Bromofuran-2-yl)methylidene]-1-methyl-4-oxoimidazolidin-2-ylidene}-3-(4-fluorophenyl)urea]",26 ± 6.5,89 ± 3
"CN1/C(=C\c2ccc(-c3ccccc3[N+](=O)[O-])o2)C(=O)N/C1=N\C(=O)Nc1ccc(F)cc1 [Compound 5l, 1-(4-Fluorophenyl)-3-[(2E,5Z)-1-methyl-5-{[5-(2-nitrophenyl)furan-2-yl]methylidene}-4-oxoimidazolidin-2-ylidene]urea]",31 ± 2.5,20 ± 5.5
"CN1/C(=C\c2ccc([N+](=O)[O-])cc2)C(=O)N/C1=N\C(=O)Nc1ccc(Cl)cc1Cl [Compound 5m, 1-(2,4-Dichlorophenyl)-3-[(2E,5Z)-1-methyl-5-(4-nitrobenzylidene)-4-oxoimidazolidin-2-ylidene]urea]",5 ± 23.5,69 ± 2.5
"CN1/C(=C\c2ccc(-c3ccccc3[N+](=O)[O-])o2)C(=O)N/C1=N\C(=S)Nc1cccc(Cl)c1 [Compound 6d, 1-(3-Chlorophenyl)-3-[(2E,5Z)-1-methyl-5-{[5-(2-nitrophenyl)furan-2-yl]methylidene}-4-oxoimidazolidin-2-ylidene]thiourea]",-14 ± 5.5,54 ± 8.5
